Source: US7169568B2, “Method for screening molecules that exert a neurotrophic effect through activation of neurotrophin receptors” (New York University, priority 2000, dated 2007)

Columns and labels:
[1] = system: TrkB receptors; assay: Trk receptor phosphorylation in primary E17 hippocampal neurons (immunoprecipitation, anti-phosphotyrosine Western blot); type: cell-based, rat; conditions: two hours
Method: FIGS. 4A and 4B show Western blots on adenosine activation of Trk receptors in hippocampal neurons. Primary cultures of E17 hippocampal neurons were prepared as described in the Materials and Methods of Example 1 and treated with (FIG. 4A) CGS 21680 (10 nM) or BDNF (1 ng/ml) for various times and (FIG. 4B) either adenosine (10 μM), CGS 21680 (10 nM), CPA (10 nM) or BDNF (10 ng/ml) for 2 hr. Activation of TrkA receptors was assessed by immunoprecipitation and Western blotting with anti-phosphotyrosine antibody.
(§1) Immunoprotection and Immunoblotting. PC12 cells or PC12-615 cells (Hempstead et al, 1992), were maintained in Dulbecco's Modified Eagle's Medium (DMEM) containing 10% fetal bovine serum (FBS) supplemented with 100 units/ml penicillin, 100 μg/ml streptomycin, and 2 mM glutamine plus 200 μg/ml G418. Cells were placed in low serum medium (1% FBS, 0.5% horse serum) overnight prior to experiments. Cell lysates from PC12, 615 cells, or hippocampal cells were incubated in lysis buffer (1% NP40) for 4 hours to overnight at 4° C. with anti-pan-Trk polyclonal antibody, followed by incubation with protein A-Sepharose beads. Equivalent amounts of protein were analyzed for each condition. The beads' were washed five times with lysis buffer and the immune complexes were boiled in SDS-sample buffer and loaded on sodium dodecyl sulfate-polyacrylamide electrophoresis (SDS-PAGE) gels for immunoblot analysis. The immunoreactive protein bands were detected by ECL reagents based upon enhanced chemiluminescence procedure (Amersham Pharmacia).
Hippocampal Cell Cultures. Dissociated primary cultures of hippocampal neurons from embryonic day 17 (E17) rats were prepared from timed-pregnant Sprague-Dawley rats as described previously (Aibel et al, 1998). Fetuses were removed under sterile conditions and kept in PBS on ice for microscopic dissection of the hippocampus. The meninges were removed and the tissue was placed in Neurobasal media (Gibco BRL). […] Cells were counted and then plated on culture wells coated with 0.01 mg/ml poly-D-lysine overnight. […]

[2] = system: hippocampal neurons; assay: Cell death assay (LDH release), hippocampal neurons after B27 withdrawal; type: cell-based, rat
Method: (§2) . In FIG. 6A, NGF-differentiated PC12 cells were prepared and then NGF and serum were withdrawn for 48 hours as described in the Materials and Methods section of Example 1. Upon NGF withdrawal, various concentrations of CGS 21680 (CGS) were added to the media. CON =No Addition. […] In FIG. 6B, hippocampal neurons were prepared and B27 was withdrawn for 48 hrs as described in the Materials and Methods section of Example 1. Upon B27 withdrawal, various concentrations of CGS 21680 (CGS) were added to the media. […] All LDH levels were quantitated and % cell death calculated as described in the Materials and Methods section of Example 1. All bars depict mean+SEM from three independent experiments.
Hippocampal Cell Cultures. Dissociated primary cultures of hippocampal neurons from embryonic day 17 (E17) rats were prepared from timed-pregnant Sprague-Dawley rats as described previously (Aibel et al, 1998). Fetuses were removed under sterile conditions and kept in PBS on ice for microscopic dissection of the hippocampus. The meninges were removed and the tissue was placed in Neurobasal media (Gibco BRL). The tissue was briefly minced with fine forceps and then triturated with a fire polished pasteur pipet. Cells were counted and then plated on culture wells coated with 0.01 mg/ml poly-D-lysine overnight. Hippocampal cells were maintained in Neurobasal media, containing B27 supplement and L-glutamine (0.5 mM). Experiments were conducted 7–10 days after plating.
Hippocampal neurons were maintained in Neurobasal media containing B27 supplement and 0.5 mM L-glutamine for 10 days. B27 was then removed, and adenosine agonists or BDNF (100 ng/ml) was added to the media. MK-801 (1 μM) was added to all conditions, to decrease the contribution of NMDA-mediated cell death. After 48 hrs, cell death was assessed by measurement of LDH released into media.

[3] = system: NGF-differentiated PC12 cells; assay: Cell death assay (LDH release), NGF-differentiated PC12 cells after NGF and serum withdrawal; type: cell-based; conditions: one-time treatment, 48 hours in the absence of NGF, LDH release
Method: as §2, with “FIGS. 6A and 6B show graphs on the trophic effects of adenosine in PC12 and hippocampal cells deprived of neurotrophins. In” for “. In”
Cell Death Assay. PC12 cells were differentiated in Dulbecco's modified Eagle's medium (DMEM), supplemented with 0.33% fetal bovine serum, 0.67% heat-inactivated horse serum, 2 mM L-glutamine and NGF (50 ng/ml) for 7 days. Serum and NGF were then removed, and adenosine agonists or growth factors added to the media. After 48 hrs, cell death was quantified by measuring lactate dehydrogenase (LDH) released from injured cells into the media using the Cytox 96 Cytotoxicity Assay Kit (Promega, Madison, Wis.). LDH values were normalized by subtracting the LDH released by cells maintained in NGF (50 ng/ml) and scaling to a full kill (=100%) reference induced by 5 min treatment with 1% Triton, an exposure that consistently killed all PC12 cells.

[4] = system: MAP kinase; assay: MAP kinase activation in PC12 cells (anti-phospho MAP kinase immunoblot); type: cell-based; conditions: PC12 cells, adenosine 10 μM, within 10 minutes
Method: as §1, with “PC12 cells (615) were treated with adenosine (10 μM) for various times in the presence or absence of […] (100 nM) or LY294002 (10 μM). The cells were subsequently harvested in lysis buffer; lysates and immunoprecipitated samples were subsequently immunoblotted with anti-phospho MAP kinase, anti-phospho Akt, and anti-phosphotyrosine. Reprobing with anti-MAP kinase and anti-pan-Trk antibodies was carried out to ensure equal protein loading. Immunoprotection” for “Immunoprotection”, “The beads' were washed five times with lysis buffer and the immune complexes were boiled in SDS-sample buffer and loaded on sodium dodecyl sulfate-polyacrylamide electrophoresis (SDS-PAGE) gels for immunoblot analysis.” left out

Row | Structure (SMILES) | Phosphorylation of TrkB receptors ([1]; 10 nM) | Cells rescued ([2]; 48 hrs after B27 withdrawal, absence of BDNF, LDH release) | Dose dependence of survival action ([2]; various concentrations upon B27 withdrawal) | Cells rescued [3] | Phosphorylation of TrkB receptors ([1]; 10 μM) | Phosphorylated MAP kinase [4]
1 | CCNC(=O)[C@H]1O[C@@H](n2cnc3c(N)nc(NCCc4ccc(CCC(=O)O)cc4)nc32)[C@H](O)[C@@H]1O [CGS 21680, 2-[(4-(2-carboxyethyl)phenylethyl)]aminoadenosine-5′-N-ethylcarboxamide] | gave rise to phosphorylated TrkB receptors | greater than 60% | dose-dependent | ~50% |  | 
2 | Nc1ncnc2c1ncn2[C@@H]1O[C@H](CO)[C@@H](O)[C@H]1O [adenosine] |  |  |  |  | gave rise to phosphorylated TrkB receptors | marked increased in phosphorylated MAP kinase
